Test results from patent US11160272B2, “Methods for preserving tissue with medical grade honey” (TRITICUM EXPLOITATIE B.V., priority 2017, dated 2021).

Test system: bovine ovarian cortex tissue
Assay: Endothelial cell density (Factor VIII immunolocalization) in cultured ovarian cortex tissue
Assay type: cell-based
Settings: treatment mean over 0 h, 4 h, 24 h, 48 h; L-Mesitran 0.2%, VEGF 50 ng.mL-1; in vitro culture TCM-199 with 10% cow serum
Description: Four mature crossbred beef cows (12 months of age) were used for this study. […] The 0.2% v/v concentration (L-Mesitran) was chosen according to the highest reported pro-angiogenic effect for this medical grade honey in an in vitro tissue culture. The ovarian cortex endothelial immunolocalization was quantified using Factor VIII [9] R Ag. Rabbit Polyclonal Antibody (ref 760-2642; BenchMark ULTRA IHC/ISH Module staining protocol; Ventana Medical Systems, Inc.; Roche, USA) at concentrations of 2.26 µg/ml, and Fiji software for the digital analysis, after 0 h, 4 h, 24 h and 48 h in each of the mentioned 4 groups. Cellular cytotoxicity (quantitation of lactate dehydrogenase, LDH [11], in cell culture supernatant) was also evaluated in the same mentioned time periods (CytoTox 96® Non-Radioactive Cytotoxicity Assay G1782, Promega GloMax Multi Detection System).
Data from ovarian cortex tissue endothelial density (immunohistochemistry data) and LDH quantification in cell culture supernatant, were analysed using the proc glimmix of SAS (Statistical Analysis Systems, SAS Inst., Inc., Cary, N.C., USA). The models included treatments and hours as fixed effects, and animal (cow) as random (co-variable) effect. The means of each treatment/hours were calculated and compared by the PDIFF multiple comparison test. The differences were considered significant for P≤0.05.

Q: Which “Endothelial cell density (Factor VIII immunolocalization), treatment effect” value does the source give for VEGF here?
A: 0.2942±0.1486
